# [ ]: non-standard residue; d: D form. d(aIle) = CC[C@H](C)[C@@H](N)C(=O)O; Nva = CCC[C@H](N)C(=O)O; Sar = CNCC(=O)O
# Test system: HT-1080 cells
# Assay: HT-1080 tumor growth inhibition in SCID mice (subcutaneous flank xenograft)
# Format: in vivo
# Conditions: peptide 120 Mpk BID SC and/or bevacizumab 3.0 Mpk twice per week SC; for % T/C: size of tumor treated/control
# Protocol: Female SCID mice (Charles River Laboratories, Wilmington, Mass., USA) with an average body weight of 18.7 g were inoculated subcutaneously into the right flank with 0.1 mL of about 0.5×10^6 HT-1080 cells (1:1 matrigel) on a Friday. Day 3, post inoculation (Monday), the mice were ear tagged and randomized into groups of ten control and treated groups. The representative prodrug of a peptidomimetic of the second of the three Type-1 repeats of TSP-1, N-Ac-Sar-Gly-Val-D-alloIle-Thr-Nva-Ile-Arg-Pro-NHCH2CH3 (120 mpk), was administered twice per day (BID) during the dosing regimen, and the representative […] bevacizumab (3 mpk) was administrated each Monday and Wednesday during the same dosing regimen. Tumors were measured with calipers every Monday, Wednesday and Friday days beginning at day 3, post inoculation. Tumor volumes were calculated according to the formula V=L×W^2/2, wherein V is volume (mm^3), L is length and W is width. Antitumorigenesis was measured by percent tumor growth inhibition (TGI).
# The term “mpk,” as used herein, means milligrams drug per kilogram mammal.
# The term “SE,” as used herein, means standard error.
# The term “T/C,” as used herein, means size of tumor (treated/control).
# The term “SC,” as used herein, means subcutaneously.
# The term “p-value,” as used herein, means confidence level of comparison to control.
# Controls comprised vehicle only. Vehicles for N-Ac-Sar-Gly-Val-D-alloIle-Thr-Nva-Ile-Arg-Pro-NHCH2CH3 and bevacizumab were D5W (5% glucose in water) and isotonic saline (0.9% NaCl in water), respectively.
Substance,% TGI (percent tumor growth inhibition) (Day 7),% T/C (Day 7),% TGI (percent tumor growth inhibition) (Day 10),% T/C (Day 10),% TGI (percent tumor growth inhibition) (Day 12),% T/C (Day 12),% TGI (percent tumor growth inhibition) (Day 14),% T/C (Day 14)
Ac-[Sar]GV[d(aIle)]T[Nva]IRP-NHEt,30.24%,69.76%,41.61%,58.39%,44.30%,55.70%,48.79%,51.21%
bevacizumab,33.68%,66.32%,39.40%,60.60%,39.25%,60.75%,58.30%,41.70%
